Reference: patent EP2857388A1, “Azoles containing sulfone” (Grünenthal GmbH, priority 2013, dated 2015)

The compounds below were run against T1, human B1R (Homo sapiens, UniProt P46663) (assay: Functional assay at bradykinin receptor 1 (B1R): Ca2+ fluorescence (Fluo-4) in FLIPR/Novostar, antagonist mode). Conditions: test substance 10 µM; CHO K1 cells stably transfected with human B1R gene (hB1R-Zellen); agonist Lys-Des-Arg9-Bradykinin at EC80; % inhibition relative to maximal achievable inhibition.
T1 construct: expressed in transfected cells; host or cells: CHO K1 cells (Chinese Hamster Ovary), stably transfected
T1 sequence (P46663 1-353): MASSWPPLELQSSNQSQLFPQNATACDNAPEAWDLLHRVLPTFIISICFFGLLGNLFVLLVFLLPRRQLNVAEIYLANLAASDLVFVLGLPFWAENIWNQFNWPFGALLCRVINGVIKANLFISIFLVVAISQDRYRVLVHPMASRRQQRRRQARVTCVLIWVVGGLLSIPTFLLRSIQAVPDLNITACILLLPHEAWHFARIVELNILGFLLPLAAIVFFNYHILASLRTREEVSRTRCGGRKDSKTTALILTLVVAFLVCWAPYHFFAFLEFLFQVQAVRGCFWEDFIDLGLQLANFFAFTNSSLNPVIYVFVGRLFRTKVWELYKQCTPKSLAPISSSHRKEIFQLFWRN
Format: cell-based
How it was run: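 Antagonism read as suppression of the Ca2+ rise in Fluo-4-loaded, hB1R-transfected CHO K1 cells when Lys-Des-Arg9-bradykinin (EC80) follows a 6–20 min compound preincubation. Maximal fluorescence counts, measured on FLIPR or Novostar, yield % inhibition relative to maximum; IC50 values come from concentration series run in duplicate or triplicate.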

| % Inhibierung (human B1R) bei 10 µM | Compound |
| --- | --- |
| 99% | 2-[3-[[(2-Chlor-6-methyl-phenyl)sulfonyl]-methyl]-[1,2,4]oxadiazol-5-yl]-N-(4-dimethylamino-cyclohexyl)-acetamid [CC-128] |

Same assay, conditions: test substance 10 µM; CHO K1 cells stably transfected with human B1R gene (hB1R-Zellen); agonist Lys-Des-Arg9-Bradykinin at EC80; % inhibition relative to maximal achievable inhibition; read-out: % Inhibierung (human B1R) bei 10 µM

| inhibition at 10 µM | Compound |
| --- | --- |
| 99% | Cc1cccc(Cl)c1S(=O)(=O)Cc1noc(C(=O)N(C)[C@H]2CCC[C@@H](N3CCN(C)CC3)C2)n1 [SC-49, 3-[[(2-Chlor-6-methyl-phenyl)sulfonyl]-methyl]-N-methyl-N-[(1S,3R)-3-(4-methyl-piperazin-1-yl)-cyclohexyl]-[1,2,4]oxadiazol-5-carbonsäure amid] |
| 99% | COc1cc(C)c(S(=O)(=O)Cc2cn(CC(=O)N(C)C3CCNCC3(C)C)nn2)c(C)c1 (centres unmarked) [CC-181, N-(3,3-Dimethyl-piperidin-4-yl)-2-[4-[[(4-methoxy-2,6-dimethyl-phenyl)sulfonyl]-methyl]-1 H-[1,2,3]-triazol-1-yl]-N-methyl-acetamid] |
| 100% | COCCN1CCC(NC(=O)Cc2nnc(CS(=O)(=O)c3c(C)cc(OC)cc3C)o2)C(C)(C)C1 (centres unmarked) [CC-31, 2-[5-[[(4-Methoxy-2,6-dimethyl-phenyl)sulfonyl]-methyl]-[1,3,4]oxadiazol-2-yl]-N-[1-(2-methoxy-ethyl)-3,3-dimethyl-piperidin-4-yl]-acetamid] |
| 100% | Cc1cc(S(=O)(=O)Cc2noc(C(=O)N3CCC4(CC3)CCN(c3ccncc3)C4)n2)c(C)cc1Cl [CC-152, [3-[[(4-Chlor-2,5-dimethyl-phenyl)sulfonyl]-methyl]-[1,2,4]oxadiazol-5-yl]-(3-pyridin-4-yl-3,8-diazaspiro[4.5]decan-8-yl)-methanon] |
| 100% | COc1cc(C)c(S(=O)(=O)Cc2nnc(CC(=O)NC3CCC(c4ccncc4)CC3(C)C)o2)c(C)c1 (centres unmarked) [CC-36, N-(2,2-Dimethyl-4-pyridin-4-yl-cyclohexyl)-2-[5-[[(4-methoxy-2,6-dimethyl-phenyl)sulfonyl]-methyl]-[1,3,4]oxadiazol-2-yl]-acetamid] |
| 100% | COc1cc(C)c(S(=O)(=O)Cc2noc(C(=O)N(C)C3CCN(c4ccnc(N(C)C)n4)CC3)n2)c(C)c1 [SC-68, N-[1-(2-Dimethylamino-pyrimidin-4-yl)-piperidin-4-yl]-3-[[(4-methoxy-2,6-dimethyl-phenyl)sulfonyl]-methyl]-N-methyl-[1,2,4]oxadiazol-5-carbonsäure amid] |
| 100% | COc1cc(C)c(S(=O)(=O)Cc2noc(CC(=O)N(C)C3CCN(C4CCOCC4)CC3)n2)c(C)c1 [SC-21, 2-[3-[[(4-Methoxy-2,6-dimethyl-phenyl)sulfonyl]-methyl]-[1,2,4]oxadiazol-5-yl]-N-methyl-N-(1-tetrahydro-pyran-4-yl-piperidin-4-yl)-acetamid] |
| 100% | COc1cc(C)c(S(=O)(=O)Cc2noc(CC(=O)NC3CCC(N(C)C)CC3)n2)c(C)c1 (centres unmarked) [CC-05, N-(4-Dimethylamino-cyclohexyl)-2-[3-[[(4-methoxy-2,6-dimethyl-phenyl)sulfonyl]-methyl]-[1,2,4]oxadiazol-5-yl]-acetamid] |
| 100% | Cc1cc(S(=O)(=O)Cc2noc(C(=O)NC3CCC(N4CCCC4)CC3(C)C)n2)c(C)cc1Cl (centres unmarked) [CC-22, 3-[[(4-Chlor-2,5-dimethyl-phenyl)sulfonyl]-methyl]-N-(2,2-dimethyl-4-pyrrolidin-1-yl-cyclohexyl)-[1,2,4]oxadiazol-5-carbonsäure amid] |
| 99% | COc1cc(C)c(S(=O)(=O)Cc2noc(C(=O)N3CCN(Cc4ccnc(N5CCCC5)c4)CC3)n2)c(C)c1 [SC-60, [3-[[(4-Methoxy-2,6-dimethyl-phenyl)sulfonyl]-methyl]-[1,2,4]oxadiazol-5-yl]-[4-[(2-pyrrolidin-1-yl-pyridin-4-yl)-methyl]-piperazin-1-yl]-methanon] |
